Series [1] in a line: Stability of solid state form (polymorphic stability by P-XRD on storage). It is filed as physicochemical. Particulars: stored 3 months in self-sealing LDPE bag, normal atmospheric conditions, room temperature. The procedure:
The X-Ray powder diffraction was measured by an X-ray powder Diffractometer equipped with CuKα-radiations (40 kV, 40 mA) in wide-angle X-ray Diffractometer of BRUKER axs, D8 ADVANCE. The sample was analyzed using the following instrument parameters: measuring range 3-45° 2-theta; step width=0.01579°; and measuring time per step=0.11 sec. Fesoterodine mandelate was prepared according to the process exemplified in Example 1 and was packed in a self-sealing low-density polyethylene (LDPE) bag. The material was stored for 3 months under normal atmospheric conditions at room temperature and checked for polymorphic stability.

A short description of series [2]: Moisture absorption during filtration of the salt. The series is classed as physicochemical.

Here are results for 2 compounds from patent publication US20110086103A1, “NOVEL MANDELATE SALT OF FESOTERODINE” (ACTAVIS GROUP PTC EHF, priority 2008, published 2011).

Where a name gives a salt, the structure may show the parent alone.

On to `CC(C)C(=O)Oc1ccc(CO)cc1[C@H](CCN(C(C)C)C(C)C)c1ccccc1.O=C(O)C(O)c1ccccc1` [Fesoterodine mandelate, mandelate salt of 2-[(1R)-3-[bis(1-methylethyl)amino]-1-phenylpropyl]-4-hydroxymethylphenyl isobutyrate], for which the “polymorphic stability (maintenance of the original P-XRD pattern)” value in series [1] is on record as “retain its polymorphic form”. The moisture absorption result in series [2] is “does not absorb moisture”.

As to `CC(C)C(=O)Oc1ccc(CO)cc1[C@H](CCN(C(C)C)C(C)C)c1ccccc1` [fumarate salt, fesoterodine fumarate, reference compound], the moisture absorption result in series [2] is reported as “absorbs moisture”.
